Assay results: patent US6573261B2, “Method for treating or preventing psychosomatic and psychoimmunologic disorders” (Merck & Co., Inc., priority 1997, dated 2003)

How the values were obtained:
[1] = system: foot tapping in gerbils induced by central injection of an NK1 agonist; test: Gerbil foot-tapping assay; assay type: in vivo, Mongolian gerbils; details: i.v.
Excerpt: CNS penetrant NK-1 receptor antagonists for use in the present invention can be identified by their ability to inhibit foot tapping in gerbils induced by anxiogenic agents (such as pentagastrin) or central infusion of NK-1 receptor agonists such as GR73632, or caused by aversive stimulation such as foot shock or single housing, based on the method of Rupniak & Williams, Eur. J. Pharmacol., 1994, 265, 179.
Male or female Mongolian gerbils (35-70g) are anaesthetised by inhalation of an isoflurane/oxygen mixture to permit exposure of the jugular vein in order to permit administration of test compounds or vehicle in an injection volume of 5 ml/kg i.v. Alternatively, test compounds may be administered orally or by subcutaneous or intraperitoneal routes. The wound is closed and a second skin incision is made in the midline of the scalp to expose the skull. An anxiogenic agent (e.g. pentagastrin) or a selective NK-1 receptor agonist (e.g. GR73632 (d Ala[L-Pro^9,Me-Leu^10]-substance P-(7-11))) is infused directly into the cerebral ventricles (e.g. 3 pmol in 5 μl i.c.v. depending upon the agent) by vertical insertion of a cuffed 27 gauge needle to a depth of 4.5 mm below bregma. […] The duration and/or intensity of hind foot tapping is then recorded continuously for 5 minutes.

[2] = system: distress vocalisations in guinea-pig pups; test: Separation-induced vocalisation assay; assay type: in vivo, guinea-pigs; details: p.o.
Experimental: On test days each pup receives an oral dose or a s.c. or i.p. injection of test compound or vehicle and is then immediately returned to the home cage with its mother and siblings for 30 minutes to 60 minutes (or for up to 4 hours following an oral dose, dependant upon the oral pharmacokinetics of the test compound) before social isolation for 15 minutes as described above. […] Between 6 and 8 animals receive each test compound at each dose tested.

Q: Which results are given for `C[C@@H](O[C@H]1OCCN(Cc2n[nH]c(=O)[nH]2)[C@H]1c1ccc(F)cc1)c1cc(C(F)(F)F)cc(C(F)(F)F)c1` [2-(R)-(1-(R)-(3,5-bis(trifiuoromethyl)phenyl)-ethoxy)-3-(S)-(4-fluorophenyl)-4-(3-(5-oxo-1H,4H-1,2,4-triazolo)methyl)-morpholine]?
A: gerbil foot-tapping (5 mins.): ID50 ([1]; 5 mins.): ID50 = 0.36 mg/kg i.v.; gerbil foot-tapping (24 hrs.): ID50 ([1]; 24 hrs. prior to challenge): ID50 = 0.33 mg/kg i.v.; guinea-pig vocalisation (4 hr. pre-treatment): ID50 [2]: ID50 = 0.73 mg/kg p.o.
